# Measured values as given in US9156822B2, “Functionally selective ligands of dopamine D2 receptors” (The University of North Carolina at Chapel Hill, priority 2010, dated 2015).
# “Also recorded” adds a separate entry of the source. Where two headings read alike, the source gives them in different places.
# How the values were obtained:
# D2 receptors [1] = target: T1, D2 receptors (Homo sapiens (Human), UniProt P14416); test: CHO-D2 radioligand binding assay ([3H]N-methylspiperone competition)
# Target sequence in this assay (P14416 whole entry): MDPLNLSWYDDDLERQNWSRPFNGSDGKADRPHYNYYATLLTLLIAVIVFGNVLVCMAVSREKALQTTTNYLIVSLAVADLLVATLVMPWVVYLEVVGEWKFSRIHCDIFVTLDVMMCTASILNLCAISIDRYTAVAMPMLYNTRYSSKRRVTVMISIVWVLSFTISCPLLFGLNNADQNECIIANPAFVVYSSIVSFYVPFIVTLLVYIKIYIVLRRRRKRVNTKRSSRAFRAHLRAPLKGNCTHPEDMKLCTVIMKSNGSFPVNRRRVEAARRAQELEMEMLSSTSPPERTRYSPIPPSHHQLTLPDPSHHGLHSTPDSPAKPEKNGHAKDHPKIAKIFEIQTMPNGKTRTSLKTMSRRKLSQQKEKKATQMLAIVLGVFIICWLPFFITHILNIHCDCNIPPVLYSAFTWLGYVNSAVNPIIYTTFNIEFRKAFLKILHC
# hD2 receptors = hD2 receptors (Homo sapiens (Human), UniProt P14416); test: D2 mediated cAMP GloSensor assay; format: cell-based
# D2 receptors [2] = target: T1, D2 receptors; test: D2 β-arrestin recruitment (Tango) assay; format: cell-based
# Protocol: The next day, cells were plated in white, clear-bottom, 384-well plates (Greiner, 10,000 cells/well, 50 μl/well) in DMEM containing 1% dialyzed fetal bovine serum. […] Data were normalized to vehicle (0%) and quinpirole (100%) controls and regressed using the sigmoidal dose-response function built into GraphPad Prism 4.0.
# Target sequence in this assay (P14416 whole entry, looked up): as the sequence (P14416 whole entry) above
# hD2L dopamine receptor = hD2L dopamine receptor (Homo sapiens (Human), UniProt P14416); test: pERK high-content assay; format: cell-based; settings: normalized to dopamine; read-out: p-ERK Emax
# Protocol: On day 1 of the assay, cells were seeded onto black clear-bottom tissue culture-treated 96-well plates (Greiner, BioOne). On day 2 of the assay, cells were washed with serum-free medium (Ham's F-12, penicillin and streptomycin) and incubated in 100 μL serum-free medium overnight.
# Immunofluorescence: Automatic multichannel pipetters were used for liquid handling and multichannel vacuum manifolds for aspirations. Each tested concentration was typically measured in triplicate or quadruplicate. For concentration curves, half-log-dilutions were used. Drug dilutions were prepared in stimulation medium (serum-free medium, 100 mg/L ascorbic acid). 100 μM dopamine and 1 μM PMA (phorbol 12-myristate 13-acetate) were used as positive controls. Medium only was used as a negative control. Specificity of the response was confirmed by pretreatment for 5 min with 10 μM of the antagonist spiperone and in experiments using wild type CHO cells.
# Cells were stimulated on day 3 by fast addition of 50 μL equilibrated 3× drug dilutions in a tissue culture incubator for 5 min. Plates were placed on ice, the medium was aspirated, and 100 μL/well of freshly prepared ice-cold fixing buffer (4% formaldehyde and 0.5 mM CaCl2 in PBS) solution was added. After 30 min fixing at room temperature, the plates were washed with 350 μL/well PBS/Ca (0.5 mM CaCl2 in PBS) and permeabilized for 20 min in 100 μL/well 0.3% Triton X-100 in PBS/Ca. […] Plates were washed three times with 250 μL/well washing buffer, post-fixed for 10 min in fixing buffer, washed with 250 μl PBS/Ca, filled with 200 μL/well PBS/Ca, sealed with transparent adhesive plate seals, and stored at 4° C.
# The Alexa594 light path was used for the target signal, Alexa488 for whole cell staining, and Hoechst for the nuclear staining. Images were analyzed using the CellProfiler software. […] Concentration curves were analyzed in GraphPad Prism by fitting against a sigmoidal dose-response model and normalization to the dopamine curve.
# 5HT2A [3] = target: T2, 5HT2A (Homo sapiens (Human), UniProt P28223); test: 5HT2A FLIPR (Ca2+ mobilization); format: cell-based
# 5HT2C [4] = target: T3, 5HT2C (Homo sapiens (Human), UniProt P28335); test: 5HT2C FLIPR (Ca2+ mobilization); format: cell-based
# 5HT1A [5] = target: T4, 5HT1A (Homo sapiens (Human), UniProt P08908); test: 5HT1A binding; settings: read-out: 5HT1A/binding (Ki)
# 5HT1A [6] = target: T4, 5HT1A; test: 5HT1A cAMP biosensor; format: cell-based
# H1-histamine receptor = H1-histamine receptor (Homo sapiens (Human), UniProt P35367); test: H1 binding
# D1 dopamine receptor = D1 dopamine receptor (Homo sapiens (Human), UniProt P21728); settings: read-out: D1/binding (Ki)
# D3-dopamine receptor = D3-dopamine receptor (Homo sapiens (Human), UniProt P35462); settings: read-out: D3/binding (Ki)
# D4 dopamine receptor = D4 dopamine receptor (Homo sapiens (Human), UniProt P21917); settings: read-out: D4/binding (Ki)
# D5 dopamine receptor = D5 dopamine receptor (Homo sapiens (Human), UniProt P21918); settings: read-out: D5/binding (Ki)
# 5HT2A [7] = target: T2, 5HT2A; settings: read-out: 5HT2A/binding (Ki)
# 5HT2B [8] = target: T5, 5HT2B (Homo sapiens (Human), UniProt P41595); settings: read-out: 5HT2B/binding (Ki)
# 5HT2B [9] = target: T5, 5HT2B
# 5HT2C [10] = target: T3, 5HT2C; settings: read-out: 5HT2C/binding (Ki)
# [11] = mouse
# C57BL/6 mice = settings: i.p., 3 mg/kg D-amphetamine
# [12] = system: wild-type and β-arrestin-2 knockout mice; settings: i.p., 6 mg/kg PCP
# [13] = system: wild-type and β-arrestin-2 knockout mice; settings: i.p., 5.0 mg/kg (haloperidol 2.0 mg/kg), 30 and 60 min, listed as UNC9975
# in vivo = settings: mouse
# 5HT2B [14] = target: T5, 5HT2B; test: cell-based
# 5HT2A [15] = target: T2, 5HT2A; test: biochemical
# 5HT2B [16] = target: T5, 5HT2B; test: biochemical
# 5HT2C [17] = target: T3, 5HT2C; test: biochemical
# T3 sequence (P28335 33-458, species assumed): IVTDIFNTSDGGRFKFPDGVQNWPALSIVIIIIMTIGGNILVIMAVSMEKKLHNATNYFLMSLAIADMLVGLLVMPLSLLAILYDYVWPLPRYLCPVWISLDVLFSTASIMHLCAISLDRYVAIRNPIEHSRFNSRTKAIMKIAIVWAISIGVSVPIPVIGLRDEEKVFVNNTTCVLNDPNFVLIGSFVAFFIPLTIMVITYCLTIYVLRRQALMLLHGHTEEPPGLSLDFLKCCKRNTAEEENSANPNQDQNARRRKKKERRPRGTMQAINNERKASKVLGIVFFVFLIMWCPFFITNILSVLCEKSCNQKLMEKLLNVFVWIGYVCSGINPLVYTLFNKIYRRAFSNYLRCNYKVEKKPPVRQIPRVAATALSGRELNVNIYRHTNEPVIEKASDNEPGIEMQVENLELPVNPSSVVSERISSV
# T5 sequence (P41595 whole entry, species assumed): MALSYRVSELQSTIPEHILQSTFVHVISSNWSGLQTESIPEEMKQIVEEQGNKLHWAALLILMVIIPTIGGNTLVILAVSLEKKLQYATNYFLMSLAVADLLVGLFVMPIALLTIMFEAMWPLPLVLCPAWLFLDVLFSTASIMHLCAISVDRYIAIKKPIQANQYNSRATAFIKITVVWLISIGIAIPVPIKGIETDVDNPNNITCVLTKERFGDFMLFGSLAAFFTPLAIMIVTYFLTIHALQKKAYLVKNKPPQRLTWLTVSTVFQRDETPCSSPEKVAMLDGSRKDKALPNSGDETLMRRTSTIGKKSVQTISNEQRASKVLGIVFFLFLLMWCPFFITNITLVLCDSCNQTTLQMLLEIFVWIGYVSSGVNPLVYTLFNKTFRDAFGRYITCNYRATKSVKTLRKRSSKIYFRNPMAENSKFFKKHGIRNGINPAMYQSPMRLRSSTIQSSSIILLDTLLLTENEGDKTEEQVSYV
# hD2 receptors, sequence (P14416 whole entry): as the sequence (P14416 whole entry) above
# hD2L dopamine receptor, sequence (P14416 whole entry): as above
# D1 dopamine receptor, sequence (P21728 whole entry): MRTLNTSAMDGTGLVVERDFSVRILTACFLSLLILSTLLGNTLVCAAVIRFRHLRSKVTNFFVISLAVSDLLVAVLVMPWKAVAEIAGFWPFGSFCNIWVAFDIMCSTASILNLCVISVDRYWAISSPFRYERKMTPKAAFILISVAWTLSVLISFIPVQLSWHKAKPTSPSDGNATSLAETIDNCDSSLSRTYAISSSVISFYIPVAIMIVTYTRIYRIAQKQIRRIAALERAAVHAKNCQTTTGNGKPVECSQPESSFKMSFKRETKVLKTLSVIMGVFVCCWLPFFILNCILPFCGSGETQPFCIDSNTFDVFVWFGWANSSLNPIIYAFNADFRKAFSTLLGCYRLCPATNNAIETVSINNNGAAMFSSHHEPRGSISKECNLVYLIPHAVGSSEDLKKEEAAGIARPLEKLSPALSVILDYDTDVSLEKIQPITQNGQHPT
# D3-dopamine receptor, sequence (P35462 whole entry): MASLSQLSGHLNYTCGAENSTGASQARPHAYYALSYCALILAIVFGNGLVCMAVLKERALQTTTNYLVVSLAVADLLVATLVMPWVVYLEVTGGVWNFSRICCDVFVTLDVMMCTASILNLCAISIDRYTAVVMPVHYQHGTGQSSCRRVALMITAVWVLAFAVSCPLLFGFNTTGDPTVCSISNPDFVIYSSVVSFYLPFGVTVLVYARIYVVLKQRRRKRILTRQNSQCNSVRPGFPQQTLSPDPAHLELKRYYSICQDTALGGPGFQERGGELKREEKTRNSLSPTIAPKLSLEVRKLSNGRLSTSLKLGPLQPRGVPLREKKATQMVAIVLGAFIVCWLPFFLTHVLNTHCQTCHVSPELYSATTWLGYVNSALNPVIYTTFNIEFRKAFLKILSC
# H1-histamine receptor, sequence (P35367 whole entry): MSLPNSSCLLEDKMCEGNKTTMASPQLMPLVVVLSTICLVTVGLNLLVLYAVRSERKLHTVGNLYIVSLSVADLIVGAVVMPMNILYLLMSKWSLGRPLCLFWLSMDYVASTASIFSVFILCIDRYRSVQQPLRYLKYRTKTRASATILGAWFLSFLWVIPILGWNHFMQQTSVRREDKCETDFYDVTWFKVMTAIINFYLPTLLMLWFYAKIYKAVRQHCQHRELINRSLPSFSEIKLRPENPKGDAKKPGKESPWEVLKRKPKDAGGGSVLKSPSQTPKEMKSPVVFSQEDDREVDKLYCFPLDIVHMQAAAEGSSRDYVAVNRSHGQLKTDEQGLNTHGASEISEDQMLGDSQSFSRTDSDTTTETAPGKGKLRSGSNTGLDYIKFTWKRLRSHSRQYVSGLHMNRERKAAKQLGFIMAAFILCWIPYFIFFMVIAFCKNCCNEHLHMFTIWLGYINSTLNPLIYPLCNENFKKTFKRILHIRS
# D5 dopamine receptor, sequence (P21918 whole entry): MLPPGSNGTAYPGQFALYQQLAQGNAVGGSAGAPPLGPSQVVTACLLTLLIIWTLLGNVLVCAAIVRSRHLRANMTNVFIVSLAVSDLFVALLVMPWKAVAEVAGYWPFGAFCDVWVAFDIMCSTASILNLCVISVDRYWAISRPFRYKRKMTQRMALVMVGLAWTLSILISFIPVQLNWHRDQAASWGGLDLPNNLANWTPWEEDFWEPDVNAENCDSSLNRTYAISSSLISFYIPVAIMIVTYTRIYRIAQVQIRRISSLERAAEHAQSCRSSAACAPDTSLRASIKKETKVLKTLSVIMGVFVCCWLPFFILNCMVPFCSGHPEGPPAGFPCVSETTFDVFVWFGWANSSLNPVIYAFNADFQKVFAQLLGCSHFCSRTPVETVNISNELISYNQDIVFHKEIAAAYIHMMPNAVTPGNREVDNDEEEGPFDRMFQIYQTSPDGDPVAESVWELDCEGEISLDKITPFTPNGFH
# D4 dopamine receptor, sequence (P21917 whole entry): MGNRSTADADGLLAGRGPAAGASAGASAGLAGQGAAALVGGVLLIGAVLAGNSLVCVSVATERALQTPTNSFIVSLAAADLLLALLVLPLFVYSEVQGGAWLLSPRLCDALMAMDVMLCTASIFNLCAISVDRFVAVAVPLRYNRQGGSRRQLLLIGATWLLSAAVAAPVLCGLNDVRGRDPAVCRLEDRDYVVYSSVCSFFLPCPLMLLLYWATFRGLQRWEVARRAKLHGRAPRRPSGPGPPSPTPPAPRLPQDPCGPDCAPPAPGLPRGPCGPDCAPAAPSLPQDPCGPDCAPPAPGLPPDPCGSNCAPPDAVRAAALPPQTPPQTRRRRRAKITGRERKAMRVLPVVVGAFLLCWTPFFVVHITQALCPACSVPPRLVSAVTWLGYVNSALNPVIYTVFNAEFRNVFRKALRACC
smiles,measurement,setting,value
"O=C1CCc2ccc(OCCCCN3CCCN(c4cccc(Cl)c4Cl)CC3)nc2N1 [Compound 3, 7-(4-(4-(2,3-dichlorophenyl)-1,4-diazepan-1-yl)butoxy)-3,4-dihydro-1,8-naphthyridin-2(1H)-one]",Ki,"D2 receptors [1]; Table 7, read-out: D2/binding (Ki)",< 10 nM
same,Ki,D2 receptors [1]; read-out: D2/binding (Ki),2.6 nM
same,Ki,D2 receptors [1]; read-out: D2 Binding Ki ± SEM,1.2 ± 0.1 nM
same,EC50,hD2 receptors,13 nM
same,Emax,hD2 receptors; read-out: cAMP (GloSensor) Emax,-94%
same,β-arrestin (Tango) % activ at 1 μM,D2 receptors [2]; 1 μM,11%
same,EC50,"D2 receptors [2]; HTLA cells, read-out: β-arrestin (Tango) EC50",3.3 nM
same,Emax,D2 receptors [2]; normalized to quinpirole (100%),44%
same,Emax,hD2L dopamine receptor,< 5%
same,IC50,5HT2A [3],660 nM
same,functional mode at 5HT2A,5HT2A [3],antagonists
same,functional mode at 5HT2C,5HT2C [4],antagonists
same,IC50,5HT2C [4]; read-out: 5HT2C/FLIPR (IC50),2200 nM
same,Ki,5HT1A [5],29 nM
same,EC50,5HT1A [6]; read-out: 5HT1A/cAMP (EC50),1800 nM
same,EC50,"5HT1A [6]; text bound, read-out: 5HT1A EC50 (weak agonists)",> 1000 nM
same,Ki,H1-histamine receptor,6.1 nM
same,Ki,D1 dopamine receptor,1040 nM
same,Ki,D3-dopamine receptor,11 nM
same,Ki,D4 dopamine receptor,178 nM
same,Ki,D5 dopamine receptor,513 nM
same,Ki,5HT2A [7],7.4 nM
same,Ki,5HT2B [8],1.1 nM
same,functional mode at 5HT2B,5HT2B [9],antagonists
same,Ki,5HT2C [10],99 nM
same,"brain exposure level, fold lower compared to aripiprazole",[11],about 3 fold
same,Brain/Plasma Ratio,[11]; 0.08 h,0.57 mL/g
same,Brain/Plasma Ratio,[11]; 0.5 h,1.12 mL/g
same,Brain/Plasma Ratio,[11]; 1 h,1.29 mL/g
same,Brain/Plasma Ratio,[11]; 2 h,3.67 mL/g
same,Brain/Plasma Ratio,[11]; 4 h,12.26 mL/g
same,Brain/Plasma Ratio,[11]; […],0.80 mL/g
same,antipsychotic-like activity in D-amphetamine-induced hyperlocomotion,C57BL/6 mice,potent antipsychotic-like activity
same,antipsychotic-like activity in PCP-induced hyperlocomotion,[12]; wild-type mice,potent antipsychotic-like activity
same,antipsychotic-like activity in PCP-induced hyperlocomotion,[12]; β-arrestin-2 knockout mice,attenuated
same,"catalepsy (latency to move, inclined screen test)",[13]; wild-type mice,do not induce catalepsy
same,"catalepsy (latency to move, inclined screen test)",[13]; β-arrestin-2 knockout mice,induced catalepsy; also recorded: inducing catalepsy
same,AUC(0-inf),in vivo; brain,329 ng·h/mL
same,AUC(0-t),in vivo; brain,267 ng·h/mL
same,Cmax,in vivo; brain,49.8 ng/mL
same,Tmax,in vivo; brain,15 min
same,concentration at 0.08 h,in vivo; brain,37.8 ng/g
same,concentration at 0.5 h,in vivo; brain,27.2 ng/g
same,concentration at 1 h,in vivo; brain,31.2 ng/g
same,concentration at 2 h,in vivo; brain,23 ng/g
same,concentration at 4 h,in vivo; brain,16.9 ng/g
same,concentration at 8 h,in vivo; brain,9.9 ng/g
same,concentration at 24 h,in vivo; brain,4.2 ng/g
same,half-life,in vivo; brain,636 min
same,AUC(0-inf),in vivo; plasma,61.5 ng·h/mL
same,AUC(0-t),in vivo; plasma,59.9 ng·h/mL
same,Cmax,in vivo; plasma,70.6 ng/mL
same,Tmax,in vivo; plasma,4.8 min
same,concentration at 0.08 h,in vivo; plasma,70.6 ng/mL
same,concentration at 0.5 h,in vivo; plasma,23.7 ng/mL
same,concentration at 1 h,in vivo; plasma,24.6 ng/mL
same,concentration at 2 h,in vivo; plasma,6.3 ng/mL
same,concentration at 4 h,in vivo; plasma,1.4 ng/mL
same,concentration at 8 h,in vivo; plasma,0 ng/mL
same,concentration at 24 h,in vivo; plasma,0 ng/mL
same,half-life,in vivo; plasma,48.6 min
same,IC50,5HT2B [14],76 nM
same,Ki,5HT2A [15],0.6 to 250 nM
same,Ki,5HT2B [16],0.6 to 250 nM
same,Ki,5HT2C [17],0.6 to 250 nM
